We go through 13 compounds from patent publication US8901116B2, “Method for treating pain, anxiety or depression using carbamoyloxy alkanoyl piperazine compound” (SK Biopharmaceuticals Co., Ltd., priority 2007, dated 2014).

The subject of experiment [1] is male ICR mouse. In words: Hot plate test in mouse. The experiment is classed as in vivo. Particulars: po, p.o, 1 hour after dosing, hot plate 55° C., read-out: Hot Plate Test Increase in latency of avoidance response. Here is the method:
A hot plate test is one of representative models for measuring an analgesic effect of drugs. A test material dissolved in a suitable vehicle was orally administered to a male ICR mouse weighing 25 to 30 g at an amount of 30 mg/kg. After 1 hour of the oral administration, the mouse was put on a hot plate (55° C.). A latency was recorded from the time right after a mouse is put on a hot plate to the time when avoidance responses (flinching, licking, jumping, etc.) to pain are observed from forefeet or rear legs of the mouse. The analgesic effect of the test material is represented by the ‘Increase in latency of avoidance response’ {[(Latency of avoidance response to pain of Test material-administered group−Latency of avoidance response to pain of vehicle-administered group)/(Latency of avoidance response to pain of Solvent-administered group)]×100%}.

The subject of experiment [2] is male ICR mouse. Put plainly: Acetic acid-induced writhing test in mouse. The format is in vivo. Particulars: po, p.o, acetic acid i.p. 1 hour after dosing, writhing counted for 10 minutes, read-out: Writhing Test Suppression of pain response. Here is the method: An acetic acid-induced writhing test is one of models for measuring an analgesic effect of drugs. A test material dissolved in a suitable vehicle was orally administered to a male ICR mouse weighing 30 to 35 g at an amount of 10 mg/kg. After 1 hour of the oral administration, […] of an aqueous 0.8% acetic acid solution was intraperitoneally injected into the male ICR mouse to induce the abdominal pain of the male ICR mouse. Right after the administration of acetic acid, the male ICR mouse was put into an empty cage, and the number of writhing behaviors of the mice was counted for 10 minutes. The term “writhing” represents a reflex action in which the mouse overtly extends its abdomen by stretching its hind legs due to the abdominal pain. The analgesic effect of the test material is represented by the ‘suppression of pain response’ {[(Writhing number of vehicle-administered group−Writhing number of Test material—administered group)/(Writhing number of Solvent-administered group)]×100%}.
Background: Writhing tests count abdominal constrictions after an irritant is injected.

For the compound `NC(=O)OC(CC(=O)N1CCN(c2ccc(Cl)cc2)CC1)c1ccccc1` (centres unmarked) [Example 38, carbamic acid 3-[4-(4-chloro-phenyl)-piperazin-1-yl]-3-oxo-1-phenyl-propyl ester], the change in vivo at 30 mg/kg with male ICR mouse [1] is 38.3%. The inhibition in vivo at 10 mg/kg with male ICR mouse [2] turned out to be 66.1%.
For `NC(=O)OC(CC(=O)N1CCN(c2ccc(F)c(F)c2)CC1)c1ccccc1` (centres unmarked) [Example 33, carbamic acid 3-[4-(3,4-difluoro-phenyl)-piperazin-1-yl]-3-oxo-1-phenyl-propyl ester], in that order: 43.6% and 74.5%.
In the same order, the values of `NC(=O)OC(CC(=O)N1CCN(c2ncccn2)CC1)c1ccccc1` (centres unmarked) [Example 25, carbamic acid 3-oxo-1-phenyl-3-(4-pyrimidin-2-yl-piperazin-1-yl)-propyl ester] are 15.9% and 59.3%.
In the same order, the values of `NC(=O)OC(CC(=O)N1CCN(c2ncc(Cl)cc2Cl)CC1)c1ccccc1` (centres unmarked) [Example 26, carbamic acid 3-[4-(3,5-dichloro-pyridin-2-yl)-piperazin-1-yl]-3-oxo-1-phenyl-propyl ester] are 20.6% and 30.8%.
`COc1ccc(N2CCN(C(=O)CCC(OC(N)=O)c3ccccc3)CC2)cc1OC` (centres unmarked) [Example 41, carbamic acid 4-[4-(3,4-dimethoxy-phenyl)-piperazin-1-yl]-4-oxo-1-phenyl-butyl ester]: the change in vivo at 30 mg/kg in the experiment on male ICR mouse [1] is 28.7%. Moreover, in the experiment with male ICR mouse [2], the inhibition in vivo at 10 mg/kg was 31.2%.
Take `COc1ccc(N2CCN(C(=O)CC(OC(N)=O)c3ccccc3)CC2)cc1` (centres unmarked) [Example 2, carbamic acid 3-[4-(4-methoxy-phenyl)-piperazin-1-yl]-3-oxo-1-phenyl-propyl ester]: in the experiment on male ICR mouse [1], the change in vivo at 30 mg/kg is 37.5%. Also, the inhibition in vivo at 10 mg/kg in the experiment with male ICR mouse [2] is 54.6%.
For the compound `COc1ccc(C(CC(=O)N2CCN(c3ccccc3)CC2)OC(N)=O)cc1` (centres unmarked) [Example 15, carbamic acid 1-(4-methoxy-phenyl)-3-oxo-3-(4-phenyl-piperazin-1-yl)-propyl ester], in the experiment with male ICR mouse [1], the change in vivo at 30 mg/kg came to 17.9%. The inhibition in vivo at 10 mg/kg in the experiment on male ICR mouse [2] is 35.1%.
In the same order, the values of `NC(=O)OC(CC(=O)N1CCN(c2ccc3c(c2)OCO3)CC1)c1ccccc1` (centres unmarked) [Example 14, carbamic acid 3-(4-benzo[1,3]dioxol-5-yl-piperazin-1-yl)-3-oxo-1-phenyl-propyl ester] are 17.8% and 64%.
In the same order, the values of `COc1ccc(N2CCN(C(=O)CC(OC(N)=O)c3ccc(F)cc3)CC2)cc1OC` (centres unmarked) [Example 7, carbamic acid 3-[4-(3,4-dimethoxy-phenyl)-piperazin-1-yl]-1-(4-fluoro-phenyl)-3-oxo-propyl ester] are 14.7% and 40.9%.
In the same order, the values of `COc1ccc(N2CCN(C(=O)CC(OC(N)=O)c3ccc(Cl)cc3)CC2)cc1OC` (centres unmarked) [Example 6, carbamic acid 1-(4-chloro-phenyl)-3-[4-(3,4-dimethoxy-phenyl)-piperazin-1-yl]-3-oxo-propyl ester] are 11% and 44.8%.
For the compound `COc1ccc(N2CCN(C(=O)CC(OC(N)=O)c3ccccc3)CC2)cc1OC` (centres unmarked) [Example 5, carbamic acid 3-[4-(3,4-dimethoxy-phenyl)-piperazin-1-yl]-3-oxo-1-phenyl-propyl ester], the change in vivo at 30 mg/kg in the experiment with male ICR mouse [1] was 39.2%. Also, the inhibition in vivo at 10 mg/kg with male ICR mouse [2] was 79.7%.
On to `NC(=O)OC(CC(=O)N1CCN(c2ccccn2)CC1)c1ccccc1` (centres unmarked) [Example 24, carbamic acid 3-oxo-1-phenyl-3-(4-pyridin-2-yl-piperazin-1-yl)-propyl ester], for which, in the experiment on male ICR mouse [1], the change in vivo at 30 mg/kg is 28.1%. Also, the inhibition in vivo at 10 mg/kg in the experiment with male ICR mouse [2] stood at 61.2%.
In the same order, the values of `COc1ccc(N2CCN(C(=O)CC(OC(N)=O)c3ccccc3)CC2)c(OC)c1` (centres unmarked) [Example 9, carbamic acid 3-[4-(2,4-dimethoxy-phenyl)-piperazin-1-yl]-3-oxo-1-phenyl-propyl ester] are 16.4% and 33.1%.
